Values quoted from earlier work in patent publication US5362498A, “Process for preparing a bioadhesive pharmaceutical dosage form and pharmaceutical dosage form thus prepared” (priority 1990, dated 1994).

Settings: metabolite produced by digestive tract absorption of morphinic active principles

SMILES: CN1CC[C@]23c4c5ccc(O)c4O[C@H]2[C@@H](O[C@@H]2O[C@H](C(=O)O)[C@@H](O)[C@H](O)[C@H]2O)C=C[C@H]3[C@H]1C5 [morphine 6-glucuronide]
- relative potency: 1.5 times
